Source: patent publication US11413286B2, “Producing astrocytes using small molecules” (CITY OF HOPE, priority 2016, dated 2022)

Key:
[1] = test system: induced astrocytes (iA) transfected with R239C AxD mutant GFAP-GFP; assay: GFAP protein aggregates in induced astrocytes transfected with AxD mutant GFAP-GFP; type: cell-based, mouse; conditions: 100 μM ceftriaxone for 48 hr vs vehicle
Experimental: Transfection into induced astrocytes. Induced astrocytes (iA) were seeded at 1×10^5 cells per well in 12-well plates and incubated overnight. Then 2 μg plasmid of human wild type (WT) GFAP-GFP or AxD mutant GFAP-GFP with the R239C mutation (Bachetti et al., 2008) was transfected into iA using Lipofectamine® 2000 (Invitrogen). Forty eight hr after transfection, cells were assayed by immunostaining. For drug treatment, 24 hr after transfection, cells were treated with vehicle control or 100 μM ceftriaxone for 48 hr, followed by immunostaining.
AxD is a neurological disease with astrocyte dysfunction and is caused by genetic mutation of the GFAP gene (Messing et al., 2012). Expression of AxD mutant GFAP induces the expression of αB-crystallin, a small heat shock protein, and the formation of protein aggregates containing GFAP and αB-crystallin in astrocytes (Messing et al., 2012). The compound-induced astrocytes were tested to see if they could be used to model AxD. Plasmid expressing GFP fusion of the wild type (WT) or AxD mutant GFAP containing the R239C mutation, a hotspot mutation for AxD (Hagemann et al., 2006), were transfected into VCSTO-induced astrocytes. […] VCSTO-induced astrocytes transfected with the AxD mutant GFAP were treated with ceftriaxone.

[2] = test system: MEF transduced with AxD GFAP-GFP; assay: GFAP protein aggregates in MEF transduced with AxD mutant GFAP-GFP; type: cell-based, mouse; conditions: ceftriaxone vs vehicle
Experimental: FIGS. 12A-12E illustrate recapitulating GFAP protein aggregates in VCSTO-induced astrocytes (iA) transfected with an AxD mutant GFAP. […] The transfected cells are indicated by GFP. Nuclei Dapi staining (blue) is included in the merged images. Scale bar, 10 μm. […] Scale bar, 10 μm. […] The percentage of iA that contained the GFAP-GFP aggregates was reduced upon ceftriaxone treatment. n=400 to 500 cells. […] MEF transduced with the AxD GFAP-GFP were treated with ceftriaxone (+Cef) or vehicle control (−Cef). The percentage of MEF that contain the GFAP-GFP aggregates remained the same in the absence or presence of ceftriaxone treatment. n=600 to 900 cells. […] Error bars are sd of the mean, **p<0.01 by Student's t-test.
AxD is a neurological disease with astrocyte dysfunction and is caused by genetic mutation of the GFAP gene (Messing et al., 2012). Expression of AxD mutant GFAP induces the expression of αB-crystallin, a small heat shock protein, and the formation of protein aggregates containing GFAP and αB-crystallin in astrocytes (Messing et al., 2012). The compound-induced astrocytes were tested to see if they could be used to model AxD. Plasmid expressing GFP fusion of the wild type (WT) or AxD mutant GFAP containing the R239C mutation, a hotspot mutation for AxD (Hagemann et al., 2006), were transfected into VCSTO-induced astrocytes. […]

CO/N=C(\C(=O)N[C@@H]1C(=O)N2C(C(=O)O)=C(CSc3nc(=O)c(=O)[nH]n3C)CS[C@H]12)c1csc(N)n1 [ceftriaxone]
GFAP protein aggregates in iA with AxD mutant GFAP [1]: Substantial elimination of GFAP protein aggregates | GFAP protein aggregates in MEF with AxD mutant GFAP [2]: not responsive
